We go through one compound from patent publication US9636323B2, “Method of treating cancer that overexpresses TopBP1” (Baylor College of Medicine, priority 2014, dated 2017).

The target in experiment [1] is T1, TopBP1/E2F1 interaction in HEK293T cells (Homo sapiens, UniProt Q92547).
T1 construct: expressed in transfected cells
Description: Co-immunoprecipitation of overexpressed E2F1 and TopBP1. It counts as cell-based. The following applies: 5 h. Here is the method:
(§1) MDA-MB468 cells were lysed with TNN buffer (Liu et al. 2003). An aliquot of cell lysates was lysed with SDS lysis buffer and the rest of cell lysates were incubated with appropriate antibodies or beads at 4° C. for 3-12 h. Anti-FLAG beads (Sigma) were washed three times with TNN buffer. Immunoprecipitates were fractionated by SDS-PAGE and electro-transferred to Immobilon-P membrane (Millipore). Equal amount of protein loading was validated with Ponceau-S staining. The specific signals were detected by incubating with appropriate antibody. All primary antibodies were used at 1:1000 dilution and horseradish peroxidase (HRP)-conjugated secondary antibodies were used at 1:5000 dilution for immunoblotting. E2F1 (C-20 and KH-95), p53 (FL393), p63 (4A4 and H-129), p73 (H-79), p21 (C-19), Bax (N-20), GST (B-14), c-Myc (A14), Miz1 (H-190), Chk1 (G4), Actin (C-2) and GAPDH (6C5) antibodies were purchased from Santa Cruz. TopBP1 (mouse monoclonal) and Aid antibodies were purchased from BD Transduction Laboratories. TopBP1 (BL893, Rabbit polyclonal) antibody was purchased from Bethyl. Mouse monoclonal anti-phospho-γH2AX was purchased from Millipore. Phospho-Chk1 (Ser345) antibody was purchased from Cell signaling. FLAG (F7425) antibody was purchased from Sigma. Mouse monoclonal anti-p73 (IMG-246) was purchased from IMGENEX.

For experiment [2], the target named is T2, TopBP1/mutp53 (R249S) interaction (Homo sapiens, UniProt Q92547).
T2 construct: endogenous in cells; host or cells: BT549
Description: Co-immunoprecipitation in BT549 cells, TopBP1/mutp53. The following applies: 2.5 μM. In kind it is cell-based.

The test system of experiment [3] is mutp53(R249S)/p73 interaction. Description: Anti-p73 immunoprecipitation in BT549 cells. The settings on record: 2.5 μM, 5 h. In kind it is cell-based, human. On the procedure: as §1
The test system of experiment [4] is E2F1 transcriptional activity. Description: E2F1 activity reporter assay (p14Arf promoter dual luciferase) in HEK293 cells. In kind it is cell-based, human. Here is the method: E2F1 activity reporter assay using a p14^ARF promoter-luciferase plasmid was performed as described (Liu et al. 2003). p53 activity reporter assay was performed by a p21^Cip promoter-luciferase plasmid (Liu et al. 2009). p73 activity reporter assay was performed using a pGL3-Bax promoter-luciferase plasmid (Liu et al. 2011). pRL-TK (Renilla luciferase, Promega) was used in all experiments for controlling transfection efficiency. The firefly and Renilla luciferase activities were measured by Dual-Luciferase Reporter System (Promega), and the firefly luciferase activities were normalized against the Renilla activity. All assays were performed in triplicate.
Background: Reporter assays use an easily measured gene product as a stand-in for the process of interest.

Experiment [5] relates to E2F sites of the p68 subunit of DNA polymerase α promoter. Description: pKL12 / pKL12-E2FAB promoter construct assay. It counts as cell-based. The following applies: wild-type versus mutated E2F sites.
Experiment [6] has as its system E2F1, p63/p73 and NF-Y target genes. Description: Real-time RT-PCR of E2F1, p63/p73 and NF-Y target genes in MDA-MB468 cells. The settings on record: 2.5 μM, 5 h. In kind it is cell-based, human. On the procedure:
RNA was isolated using TRIzol method (Invitrogen). Quantitative reverse transcription-PCR (RT-PCR) was performed in triplicate using the forward and reverse primers ((Chowdhury et al. 2014) Supplementary FIG. 18) on an MX3005P thermal cycler using SYBR green dye method to observe the progress of the reactions with ROX dye, which was added as reference. GAPDH was run in parallel with target genes.
(In general: In qPCR the cycle at which signal appears reflects the starting amount.)

The next experiment relates to MCF7 cells. Description: Caspase 3/7 activity assay, MCF7. In kind it is cell-based, human. The following applies: 2.5 μM overnight. Here is the method: (§2) The apoptosis was measured by Caspase-Glo® 3/7 assay (Promega) following the manufacturer's protocol. The cells were plated in 6-well tissue culture dish (10^4 cells/well) (BD Falcon) in respective media. […] The blank reactions were prepared per direction. Equal volume of Caspase-Glo® 3/7 reagents were applied to each well. A luminometer (Sirius) was used to quantitate luminescence.

A further experiment relates to MDA-MB231 cells. Description: Caspase 3/7 activity assay, MDA-MB231. It counts as cell-based, human. The settings on record: 2.5 μM overnight. On the procedure:
as §2

The next experiment relates to MDA-MB468 cells. Description: Mammosphere formation. In kind it is cell-based, human. The settings on record: 2.5 μM, 11 days. Here is the method:
For in vitro mammosphere culture, ˜5000 MDA-MB468 cells/well were seeded into a Ultra-low Adherent 6-well plate (Stem Cell Technologies) with 2 ml/well fresh complete MammoCult™ medium (Stem Cell Technologies) containing the MammoCult® Basal Medium, MammoCult® Proliferation Supplement, 4 μg/ml Heparin (Stem Cell Technologies) and fresh 0.48 μg/ml Hydrocortisone. Cells were incubated in a 5% CO2 incubator at 37° C. for 7-11 days. […] Each treatment was done in triplicate.

Experiment [7] concerns RPMI 8226 myeloma cell line. Description: MTS assay, RPMI 8226. It counts as cell-based, human. The following applies: Calcein AM 2.5 μM, 12 h, mutp53(E285K). Here is the method: Then 50 μl of MTS reagent (CellTiter 96® AQueous One Solution Cell Proliferation Assay, Promega) was added to each well, covered from light and incubated for 1 h at 37.0 incubator to develop purple color. The samples were measured at 490 nm in a plate reader (BioTek Synergy HT) against a blank 48-well plate. Each assay was done in triplicate.

Another experiment has as its system BT549 cells. Description: Caspase-Glo 3/7 activity assay, BT549. It counts as cell-based, human. The settings on record: for Calcein AM-induced apoptosis: 17 h. Here is the method:
as §2
To prepare TopBP1 knockdown stable cell line, MDA-MB468 cells were infected with lentivirus expressing TopBP1 shRNA (Liu et al. 2011) as well as scramble shRNA, separately. The infected cells were grown for 48 h followed by selection with puromycin (2 μg/ml). After selection, the knockdown was confirmed by Western blotting before further experiments. Two different pLKO-shTopBP1 (#1 and #2) constructs (Open Biosystems, RHS4533-NM_007027) were used to deplete TopBP1 in MDA-MB468 cells. Additional two pSuper-shTopBP1 constructs (Liu et al. 2004) were used to knock down TopBP1 in HEK293 cells. Two pSuper-shE2F1 constructs were used to deplete E2F1: shE2F1#1 (described previously (Liu et al. 2004)), and shE2F1#2 (target sequence 5′-[…]-3′). The target sequence for pSuperior-shE2F1 is the same as pSuper-shE2F1#1. To deplete p63, shp63alpha pLKO.1-puro (from Addgene, 19120) was used. TP73 MISSION shRNA (shp73 pLKO.1-puro) was purchased from Sigma (TRCN00002722587).

Another experiment deals with NCI-H522. The settings on record: NCI-DTP database; cited from earlier work.

T1 sequence (Q92547 whole entry): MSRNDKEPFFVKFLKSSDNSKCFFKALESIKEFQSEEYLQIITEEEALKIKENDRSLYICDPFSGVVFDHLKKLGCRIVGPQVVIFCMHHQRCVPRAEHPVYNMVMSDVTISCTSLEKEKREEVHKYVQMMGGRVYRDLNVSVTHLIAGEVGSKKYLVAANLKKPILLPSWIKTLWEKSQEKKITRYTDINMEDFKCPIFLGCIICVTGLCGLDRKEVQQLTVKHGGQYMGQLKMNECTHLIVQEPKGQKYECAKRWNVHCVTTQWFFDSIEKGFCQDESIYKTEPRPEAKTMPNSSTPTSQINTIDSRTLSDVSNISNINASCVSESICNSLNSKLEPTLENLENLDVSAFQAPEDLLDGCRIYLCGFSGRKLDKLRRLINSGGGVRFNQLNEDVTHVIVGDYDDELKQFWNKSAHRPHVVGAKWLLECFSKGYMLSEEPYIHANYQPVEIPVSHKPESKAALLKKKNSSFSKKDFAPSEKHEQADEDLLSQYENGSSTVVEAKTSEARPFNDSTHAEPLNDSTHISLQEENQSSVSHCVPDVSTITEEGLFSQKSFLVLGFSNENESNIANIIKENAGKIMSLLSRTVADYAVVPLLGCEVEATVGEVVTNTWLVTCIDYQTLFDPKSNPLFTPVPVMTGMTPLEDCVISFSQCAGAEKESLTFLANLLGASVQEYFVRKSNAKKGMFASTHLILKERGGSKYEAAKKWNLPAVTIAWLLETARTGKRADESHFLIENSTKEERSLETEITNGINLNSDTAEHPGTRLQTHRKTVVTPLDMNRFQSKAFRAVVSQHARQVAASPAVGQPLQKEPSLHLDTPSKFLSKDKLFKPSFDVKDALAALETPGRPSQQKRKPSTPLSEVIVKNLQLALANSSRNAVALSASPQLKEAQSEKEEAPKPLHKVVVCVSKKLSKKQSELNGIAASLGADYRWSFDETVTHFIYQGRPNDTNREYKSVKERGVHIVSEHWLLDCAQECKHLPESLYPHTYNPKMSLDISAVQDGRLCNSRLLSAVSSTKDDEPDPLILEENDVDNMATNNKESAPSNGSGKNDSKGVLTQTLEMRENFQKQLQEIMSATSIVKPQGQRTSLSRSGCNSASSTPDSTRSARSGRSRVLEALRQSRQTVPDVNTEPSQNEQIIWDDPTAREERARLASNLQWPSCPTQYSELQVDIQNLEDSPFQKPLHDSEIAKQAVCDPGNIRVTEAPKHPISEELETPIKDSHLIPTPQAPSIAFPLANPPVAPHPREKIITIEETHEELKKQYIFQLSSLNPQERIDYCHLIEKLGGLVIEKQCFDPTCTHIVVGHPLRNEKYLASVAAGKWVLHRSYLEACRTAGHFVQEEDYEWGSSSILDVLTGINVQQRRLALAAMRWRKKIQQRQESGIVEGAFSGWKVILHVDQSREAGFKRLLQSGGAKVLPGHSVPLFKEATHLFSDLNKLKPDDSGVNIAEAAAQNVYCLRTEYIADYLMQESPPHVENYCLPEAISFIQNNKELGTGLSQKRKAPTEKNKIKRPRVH
T2 sequence (Q92547 whole entry, stated change not applied): as the sequence (Q92547 whole entry) above

A word on the GI50: it is the concentration at which growth is held to half of that of the control. For `CC(=O)OCOC(=O)CN(CC(=O)OCOC(C)=O)Cc1cc2c(cc1OC(C)=O)Oc1cc(OC(C)=O)c(CN(CC(=O)OCOC(C)=O)CC(=O)OCOC(C)=O)cc1C21OC(=O)c2ccccc21` [Calcein AM, Calcein AM (acetoxymethyl ester)], the “interaction between overexpressed E2F1 and TopBP1” value in experiment [1] is “inhibited the interaction between overexpressed E2F1 and TopBP1”. The “interaction between TopBP1 and mutp53” value in experiment [2] is given as “inhibited”. Also, the “binding of p73 to mutp53(R249S)” value in experiment [3] is “release of p73 from mutp53(R249S)”. Also, the E2F1 transcriptional activity result in [4] is reported as “enhanced”. Moreover, in experiment [5], the “induction of promoter activity on pKL12 and pKL12-E2FAB” value is “could only induce the activity on pKL12, but not on pKL12-E2FAB”. For the same compound, the “E2F1 pro-apoptotic target genes (p73, Apaf1, caspase 3)” value in experiment [6] is reported as “up-regulated”. The “NF-Y target genes (Cdk1, Cdc25C, Cyclin A2)” value in experiment [6] is “down-regulation”. Also, the “p63/p73 target genes (Bax, Noxa, Hdm2)” value in [6] is listed as “up-regulation”. The “induction of E2F1, p63/p73 and NF-Y target gene expression” value in experiment [6] (TopBP1-depleted cells) was “less significant”. The “apoptosis (caspase 3/7 activity)” value in the experiment with MCF7 cells and with MDA-MB231 cells was “induced apoptosis” each time. In the experiment on MDA-MB468 cells, the mammosphere formation entry was “blocked”. Also, the “doxorubicin sensitivity (MTS)” value in experiment [7] was “sensitized cells to doxorubicin”. Besides, in the experiment on BT549 cells (16 h), the “concentration at which apoptosis was induced” value was at least 1 µM. Moreover, in the experiment with BT549 cells (E2F1 depleted by two shRNA constructs, 2.5 μM, 16 h), the “Calcein AM response, caspase activation” value is given as “attenuated”. For the same compound, the “Calcein AM-induced apoptosis” value was “decreased” in the experiment with BT549 cells (p63 depleted, 2.5 μM) and “decreased” in the experiment on BT549 cells (p73 depleted, 2.5 μM). Further, the concentration for 50% growth inhibition (GI50) in the experiment on NCI-H522 was under 1000 nM.
